In PubChem BioAssay (NCI) one finds GI50 and TGI data, which are given here for 11 compounds.

Values joined by “and” are separate entries in the source; they are usually repeats but may differ in a detail not shown here. Identical values can stand only once.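 How tested: cells in 96-well plates exposed to compound for 48 hours at five concentrations. GI50: concentration for 50% inhibition of growth. TGI marks complete inhibition of growth.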 Where only a bound is given, the exact number is not on record here.

Test systems include A498 renal; CCRF-CEM leukemia; IGROV1 ovarian; MOLT-4 leukemia; NCI-H23 lung; OVCAR-3 ovarian; SF-539 CNS; SK-MEL-28 melanoma; SNB-19 CNS; UACC-257 melanoma.
What all share (assay): DTP human tumour cell line panel, 48 h

For the compound `C/C1=C\CC[C@@]2(C)O[C@@H]2[C@H]2OC(=O)[C@@H](CN(C)C)[C@@H]2CC1`, the GI50 (in general, the concentration giving 50% growth inhibition) with A498 renal was 25.7 µM; in the test on CCRF-CEM leukemia, 2.11 µM; in the test with IGROV1 ovarian, 17.9 µM; with MOLT-4 leukemia, 2.89 µM; with NCI-H23 lung it was 19.2 µM; in the test with OVCAR-3 ovarian, 12.1 µM. In addition, the GI50 with SF-539 CNS was 2.45 µM; in the test with SK-MEL-28 melanoma it was 21.9 µM; in the test with SNB-19 CNS it was 27.9 µM; in the test with UACC-257 melanoma, 12.8 µM. The TGI (usually the concentration giving total growth inhibition) with A498 renal was 44.9 µM; with CCRF-CEM leukemia, 5.61 µM; in the test on IGROV1 ovarian, 34.2 µM; in the test on MOLT-4 leukemia it was 9.82 µM; in the test with NCI-H23 lung it was 40 µM; with OVCAR-3 ovarian it was 32.4 µM. Besides, the TGI in the test on SF-539 CNS was found to be 5.62 µM; in the test with SK-MEL-28 melanoma, 51.6 µM; in the test with SNB-19 CNS, 63 µM; with UACC-257 melanoma it was 28.4 µM.
In the case of `COc1cc(Nc2cn[nH]c2-c2ccc(Cl)cc2)cc(OC)c1OC`, the GI50 in the test on A498 renal was 4.58 µM; with CCRF-CEM leukemia it was 3.42 µM; in the test on IGROV1 ovarian it was 4.6 µM; with MOLT-4 leukemia, 3.65 µM; in the test with NCI-H23 lung, 8.33 µM; in the test on OVCAR-3 ovarian it was 3.44 µM. Besides, the GI50 with SF-539 CNS is 4.48 µM; with SK-MEL-28 melanoma, 6.45 µM; with SNB-19 CNS, 6.96 µM; in the test with UACC-257 melanoma, 15.7 µM. The TGI in the test with A498 renal is 23.8 µM; with CCRF-CEM leukemia it was greater than 81.9 µM; in the test with IGROV1 ovarian, 69.6 µM; with MOLT-4 leukemia it was greater than 80.2 µM; in the test with NCI-H23 lung, greater than 60.8 µM; in the test with OVCAR-3 ovarian, 14.4 µM. The TGI is 24.7 µM in the test on SF-539 CNS, 56.7 µM in the test with SK-MEL-28 melanoma, greater than 69.3 µM in the test on SNB-19 CNS and greater than 83.6 µM in the test with UACC-257 melanoma.
For `C=C(F)C(=O)N1CCN(c2nc(OC[C@@H]3CCCN3C)nc3c2CCN(c2cccc4cccc(Cl)c24)C3)C[C@@H]1CC#N`, the GI50 with A498 renal is 1.39 µM; with CCRF-CEM leukemia it was 1.05 µM; in the test on IGROV1 ovarian it was 1.31 µM; in the test on MOLT-4 leukemia, 0.573 µM; in the test with NCI-H23 lung, less than 0.01 µM; in the test with OVCAR-3 ovarian, 1.15 µM. Also, the GI50 was 0.936 µM in the test on SF-539 CNS, 1.32 µM with SK-MEL-28 melanoma, 1.19 µM in the test on SNB-19 CNS and 1.57 µM with UACC-257 melanoma. Further, the TGI in the test with A498 renal came to 2.86 µM; in the test on CCRF-CEM leukemia, 4.32 µM; in the test on IGROV1 ovarian, 3.2 µM; in the test on MOLT-4 leukemia, 2.71 µM; with NCI-H23 lung, 1.58 µM; in the test on OVCAR-3 ovarian, 3.28 µM. Besides, the TGI in the test with SF-539 CNS worked out at 2.25 µM; with SK-MEL-28 melanoma, 2.72 µM; in the test with SNB-19 CNS it was 5.32 µM; in the test on UACC-257 melanoma, 3.1 µM.
`CC(=O)Nc1ccc(C(=O)NN2C(=O)C(Cl)C2c2ccccc2)cc1` (centres undefined): the TGI in the test with A498 renal, with CCRF-CEM leukemia, in the test on IGROV1 ovarian, with MOLT-4 leukemia, with NCI-H23 lung and in the test on OVCAR-3 ovarian was greater than 100 µM each time. The TGI with SF-539 CNS, in the test with SK-MEL-28 melanoma, with SNB-19 CNS and with UACC-257 melanoma was greater than 100 µM throughout.
On to `O=S(O)CCCCSSCC(O)C(O)CSSCCCCS(=O)O` (centres undefined), for which the TGI is greater than 100 µM with A498 renal; 31.9 µM and 26.2 µM with CCRF-CEM leukemia; greater than 100 µM in the test with IGROV1 ovarian; 6.69 µM and 9.58 µM with MOLT-4 leukemia; 42.3 µM and > 100 µM in the test on NCI-H23 lung; 23.8 µM and 25.6 µM with OVCAR-3 ovarian. In addition, the total growth inhibition concentration (TGI) in the test with SF-539 CNS was 69.7 µM and > 100 µM; in the test with SK-MEL-28 melanoma, 45.1 µM and > 100 µM; in the test on SNB-19 CNS it was greater than 100 µM; in the test with UACC-257 melanoma, 21.6 µM and 26.7 µM.
For the compound `O=C1NC(=Nc2ccccc2)S/C1=C\c1ccc2ncccc2c1`, the concentration for total growth inhibition (TGI) in the test with A498 renal is greater than 18.4 µM; in the test with CCRF-CEM leukemia it was greater than 25 µM; with IGROV1 ovarian, greater than 25 µM; in the test with MOLT-4 leukemia it was greater than 25 µM; with NCI-H23 lung, greater than 25 µM; in the test on OVCAR-3 ovarian it was greater than 25 µM. The TGI in the test on SF-539 CNS, in the test with SK-MEL-28 melanoma, in the test with SNB-19 CNS and with UACC-257 melanoma was greater than 25 µM each time. Besides, the GI50 with CCRF-CEM leukemia was greater than 25 µM; in the test with IGROV1 ovarian, greater than 7.5 µM; in the test on MOLT-4 leukemia it was greater than 25 µM; with NCI-H23 lung it was 5.89 µM; in the test on OVCAR-3 ovarian, 1.11 µM; with SF-539 CNS, greater than 6.25 µM. Besides, the GI50 with SK-MEL-28 melanoma was greater than 25 µM; in the test with SNB-19 CNS, greater than 22.9 µM; with UACC-257 melanoma, greater than 25 µM.
In the case of `Cc1ccc(S(=O)(=O)NCC2CCCCC2=O)cc1` (centres undefined), the TGI in the test on A498 renal, with CCRF-CEM leukemia, with IGROV1 ovarian, in the test with MOLT-4 leukemia, in the test on NCI-H23 lung and in the test with OVCAR-3 ovarian was greater than 100 µM each time. The TGI in the test with SF-539 CNS was greater than 100 µM; in the test with SK-MEL-28 melanoma, greater than 100 µM; with SNB-19 CNS it was greater than 100 µM; in the test on UACC-257 melanoma it was 57.7 µM.
In the case of `Cn1c(=O)c2c(nc(Nc3cc(=O)[nH]c(=O)[nH]3)n2Cc2ccccc2)n(C)c1=O`, the GI50 was 7.97 µM in the test on A498 renal; greater than 100 µM in the test on CCRF-CEM leukemia; greater than 100 µM in the test on IGROV1 ovarian; greater than 100 µM in the test with MOLT-4 leukemia; greater than 100 µM with NCI-H23 lung; greater than 100 µM in the test on OVCAR-3 ovarian. The GI50 in the test with SF-539 CNS, in the test with SK-MEL-28 melanoma, with SNB-19 CNS and in the test with UACC-257 melanoma was greater than 100 µM in each case. For the same compound, the concentration for total growth inhibition (TGI) with A498 renal, in the test on CCRF-CEM leukemia, with IGROV1 ovarian, with MOLT-4 leukemia, in the test with NCI-H23 lung and in the test on OVCAR-3 ovarian was greater than 100 µM throughout. Besides, the TGI in the test on SF-539 CNS, in the test with SK-MEL-28 melanoma, with SNB-19 CNS and in the test with UACC-257 melanoma was greater than 100 µM each time.
On to `COC(=O)/C=C/c1cc(O)c2oc(-c3ccc(O)c(O)c3)c(C(=O)OC)c2c1`, for which the GI50 is 1.95 µM with A498 renal; 0.402 µM in the test on CCRF-CEM leukemia; 0.543 µM in the test on IGROV1 ovarian; 0.462 µM in the test with MOLT-4 leukemia; 0.43 µM with NCI-H23 lung; 0.147 µM with OVCAR-3 ovarian. Further, the GI50 with SF-539 CNS is 0.159 µM; with SK-MEL-28 melanoma it was 1.92 µM; with SNB-19 CNS, 0.356 µM; with UACC-257 melanoma, 2.83 µM. Further, the TGI is 9.58 µM in the test with A498 renal; greater than 21.8 µM in the test on CCRF-CEM leukemia; 11.5 µM in the test with IGROV1 ovarian; 7.11 µM in the test on MOLT-4 leukemia; 7.81 µM in the test with NCI-H23 lung; 3.43 µM in the test on OVCAR-3 ovarian. The concentration for total growth inhibition (TGI) in the test on SF-539 CNS came out at 1.96 µM; with SK-MEL-28 melanoma it was 11.1 µM; in the test on SNB-19 CNS, 14.2 µM; in the test on UACC-257 melanoma, 16.5 µM.
As to `CNCCCn1cc(C2=C(c3cn(C)c4ccccc34)C(=O)NC2=O)c2ccccc21`, the GI50 with A498 renal is 4.29 µM; with CCRF-CEM leukemia, 4.91 µM; in the test on IGROV1 ovarian, 5.41 µM; with MOLT-4 leukemia, 5 µM; with NCI-H23 lung, 5.21 µM; with OVCAR-3 ovarian, 5.14 µM. Also, the GI50 in the test with SF-539 CNS is 3.59 µM; in the test on SK-MEL-28 melanoma, 3.85 µM; with SNB-19 CNS, 6.29 µM; in the test on UACC-257 melanoma, 4.57 µM. Besides, the total growth inhibition concentration (TGI) worked out at 8.35 µM in the test on A498 renal; 20.4 µM in the test with CCRF-CEM leukemia; 11.4 µM in the test with IGROV1 ovarian; 19.1 µM in the test on MOLT-4 leukemia; 13.2 µM with NCI-H23 lung; 13.8 µM with OVCAR-3 ovarian. In addition, the TGI in the test with SF-539 CNS turned out to be 7.06 µM; in the test with SK-MEL-28 melanoma, 7.8 µM; in the test with SNB-19 CNS it was 22.7 µM; with UACC-257 melanoma it was 8.81 µM.
Take `CCOc1nc(-c2ccccc2)cc2c(O)c(-c3nnco3)[nH]c(=O)c12`: the GI50 was 2.56 µM in the test with A498 renal; 3.04 µM in the test on CCRF-CEM leukemia; 3.63 µM in the test with IGROV1 ovarian; 4.9 µM in the test on MOLT-4 leukemia; 4.01 µM in the test with NCI-H23 lung; 4.42 µM in the test on OVCAR-3 ovarian. Also, the GI50 with SF-539 CNS is 4.39 µM; in the test on SK-MEL-28 melanoma, 30.9 µM; in the test on SNB-19 CNS, 6.13 µM; with UACC-257 melanoma, 3.2 µM. Moreover, the TGI was 58 µM in the test on A498 renal; greater than 100 µM with CCRF-CEM leukemia; greater than 89.8 µM in the test on IGROV1 ovarian; greater than 100 µM in the test with MOLT-4 leukemia; greater than 100 µM in the test on NCI-H23 lung; greater than 100 µM with OVCAR-3 ovarian. The TGI with SF-539 CNS was greater than 47.1 µM; with SK-MEL-28 melanoma it was greater than 100 µM; with SNB-19 CNS, greater than 62.4 µM; in the test with UACC-257 melanoma, greater than 100 µM.
